Reference: patent US6635665B2, “Remedies or preventives for pulmonary insufficiency containing diaminotrifluoromethylpyridine derivatives” (Ishihara Sangyo Kaisha, Ltd., priority 2000, dated 2003)

Test system: LPS induced rat ARDS model
Assay: Therapeutic effect on lipopolysaccharide (LPS) induced rat ARDS model
Type: in vivo
Description: The therapeutic effect of N-(2-ethylsulfonylamino-5-trifluoromethyl-3-pyridyl)cyclohexanecarboxamide sodium salt hydrate (hereinafter referred to as compound 1) on LPS induced rat ARDS model was examined.
The compound 1 was used as a drug formulation. The formulation composition (content per one vial) was as follows.
To Crj: CD(SD)IGS male rats (7 weeks old) (Charles River Japan Inc.), LPS (derived from Salmonella enteritidis; L6011, Lot. 27H4127, manufactured by Sigma) diluted with a phosphate buffer solution (PBS) was administered by spraying it on the trachea in a dose of 8 mg/kg (0.5 ml/rat) by means of an atomizer (endotracheal liquid atomizing apparatus 1A-1B, manufactured by Penn Century) to induce ARDS. For normal group rats, PBS was similarly sprayed.
A drug formulation of the compound 1 diluted with 5% glucose was subcutaneously administered continuously in a dose of 0.3 mg/kg/hr as calculated as anhydride of the compound 1 by means of an osmotic pump from immediately after the induction to the time of autopsy (24 hours after). To non-treated group rats, 5% glucose used as the solvent was administered similarly.
24 Hours after the administration of LPS, measurement of the body weight and the lung wet weight, biochemical examination of blood and pathological and histopathological examinations were carried out with respect to every surviving rats.
No death was confirmed 24 hours after the LPS administration, and thus various examinations were carried out with respect to every rat. Here, the pathological score was obtained by evaluating each rat in five stages of −(no significant lesion), ±(slight), +(mild), ++(moderate) and +++(marked), and allotting 0, 0.5, 1, 2 and 3 points, respectively, to obtain the average of each group.

[1] = Crj:CD(SD)IGS male rats, LPS 8 mg/kg on the trachea, 0.3 mg/kg/hr x 24 hr subcutaneous by osmotic pump, 24 hours after LPS, score 0-3, non-treated group 2.7, P < 0.01 vs. non-treated group
[2] = Crj:CD(SD)IGS male rats, LPS 8 mg/kg on the trachea, 0.3 mg/kg/hr x 24 hr subcutaneous by osmotic pump, 24 hours after LPS, score 0-3, non-treated group 2.8, P < 0.01 vs. non-treated group

CCS(=O)(=O)Nc1ncc(C(F)(F)F)cc1NC(=O)C1CCCCC1.O.[Na] [Compound 1, N-(2-ethylsulfonylamino-5-trifluoromethyl-3-pyridyl)cyclohexanecarboxamide sodium salt hydrate]
Histopathological findings of alveoli: Collapse of alveolar wall (average of score in each group), Mean [1]: 1.2
Histopathological findings of alveoli: Hemorrhage in alveoli (average of score in each group), Mean [1]: 1.5
Histopathological findings of alveoli: Alveolar edema (average of score in each group), Mean [2]: 1.4
Histopathological findings of alveoli: Fibrin deposit in alveoli (average of score in each group), Mean [2]: 1.5
Autopsy findings of lung: Edema (average of score in each group), Mean (Crj:CD(SD)IGS male rats, LPS 8 mg/kg on the trachea, 0.3 mg/kg/hr x 24 hr subcutaneous by osmotic pump, autopsy 24 hours after LPS, score 0, 0.5, 1, 2, 3 for -, ±, +, ++, +++, non-treated group 0.4): 0.1
Autopsy findings of lung: Hemorrhage (average of score in each group), Mean (Crj:CD(SD)IGS male rats, LPS 8 mg/kg on the trachea, 0.3 mg/kg/hr x 24 hr subcutaneous by osmotic pump, autopsy 24 hours after LPS, score 0-3, non-treated group 1.0): 0.5
Autopsy findings of lung: Congestion (average of score in each group), Mean (Crj:CD(SD)IGS male rats, LPS 8 mg/kg on the trachea, 0.3 mg/kg/hr x 24 hr subcutaneous by osmotic pump, autopsy 24 hours after LPS, score 0-3, non-treated group 2.8, P < 0.01 vs. non-treated group): 2.2
Collapse of the alveolar wall, alveolar edema and hemorrhage, and fibrin deposit in the alveoli (LPS induced rat ARDS model, compound 1 administered group (0.3 mg/kg/hr subcutaneous, 24 hours) compared with non-treated group, result in words): reduced
Inhibition effect against ARDS pathological progress (LPS induced rat ARDS model, compound 1 administered group (0.3 mg/kg/hr subcutaneous, 24 hours), result in words): remarkable inhibition effect
